Source: US12290497B2, “Agent containing 4-phenylbutyrate, for preventing or treating presbyopia” (SANTEN PHARMACEUTICAL CO., LTD., priority 2018, dated 2025)

What was measured:
lens elasticity [1] = assay: Pharmacological Test 1: effect of EV06 eye drops on lens elasticity (lens diameter change under cover glass); format: in vivo, C57BL/6J mice; details: 3 times per day for 15 to 17 days; for Lens elasticity improvement: 2.5 μL/eye, 8-month-old mice, vs vehicle control
Method: The effect of lipoic acid choline ester (EV06) on the lens elasticity was examined. The tests were conducted with reference to the methods described in InvestOphthalmol Vis Sci, 57, 2851-2863, 2016. EV06 is a compound represented by the following formula (2): A vehicle comprising 0.1% (w/v) of ethyl pyruvate, 0.269% (w/v) of sodium dihydrogenphosphate monohydrate (NaH2PO4H2O), 0.433% (w/v) of disodium hydrogenphosphate (Na2HPO4), 0.2% (w/v) of hydroxypropyl methylcellulose, and 0.5% (w/v) of NaCl was prepared. EV06 was sonicated with the addition of the vehicle to prepare a 5% (w/v) suspension. The resulting 5% (w/v) suspension was diluted with the vehicle to prepare a 1.5% (w/v) solution. Further, the resulting 1.5% (w/v) solution was diluted with the vehicle to prepare a 0.5% (w/v) solution. The total amount of each sample to be used in one day was prepared before use. 1) Each test sample (2.5 μL/eye) was instilled into the right eye of 8-month-old C57BL/6J mice with a Pipetman 3 times per day (around 9:00, 13:00 and 17:00) for 15 to 17 days. 2) After the final instillation, the mice were euthanized by carbon dioxide inhalation, and then the eyeballs were extracted and rinsed with Hank's balanced salt solution (HBSS). 3) The sclera near the optic nerve was cut with a razor, the lens was removed through the incision, and the removed lens was immersed in HESS. 4) The lens was placed on a glass slide, and an all-in-one fluorescence microscope BZ-9000 (Keyence) was used to capture an image of the lens (Image a). 5) Next, one cover glass (Corning^(registered trade mark) 22×22 mm Square) was placed on the lens, and an image in which the thickness of the lens changed due to the weight was similarly captured (Image b). 6) A change in the lens diameter was calculated from Equation 1 wherein the lens diameter of Image a is subtracted from the lens diameter of Image b, as described below. Then, the lens elasticity improvement of each sample group compared with the vehicle control group was calculated from Equation 2 described below. The mean of the vehicle control group was based on 6 eyes and the mean of each EV06 sample group was based on 12 eyes. Change in lens diameter=Lens diameter in Image b of each test sample−Lens diameter in Image a of each test sample (Equation 1) Lens elasticity improvement of each sample group=Mean change in lens diameter of each EV06 sample group−Mean change in lens diameter of Vehicle control group (Equation 2) (Results)

lens elasticity [2] = assay: Pharmacological Test 2: effect of sodium 4-phenylbutyrate eye drops on lens elasticity; format: in vivo, C57BL/6J mice; details: 3 times per day for 12 to 15 days; for Lens elasticity improvement: 2.5 μL/eye, 8-month-old mice, vs vehicle control
Method: The effect of sodium 4-phenylbutyrate on the lens elasticity was examined. A vehicle comprising 0.1% (w/v) of ethyl pyruvate, 0.269% (w/v) of sodium dihydrogenphosphate monohydrate (NaH2PO4H2O), 0.433% (w/v) of disodium hydrogenphosphate (Na2HPO4), 0.2% (w/v) of hydroxypropyl methylcellulose, 0.5% (w/v) of NaCl was prepared. Sodium 4-phenylbutyrate was sonicated with the addition of the vehicle to prepare a 1.5% (w/v) solution. The resulting 1.5% (w/v) solution was diluted with the vehicle to prepare a 0.5% (w/v) solution. Further, the resulting 0.5% (w/v) solution was diluted with the vehicle to prepare a 0.15% (w/v) solution. The total amount of each sample to be used in one day was prepared before use. EV06 was sonicated with the addition of the vehicle to prepare a 1.5% (w/v) solution. The total amount of the sample to be used in one day was prepared before use. 1) Each test sample (2.5 μL/eye) was instilled into the right eye of 8-month-old C57BL/6J mice with a Pipetman 3 times per day (around 9:00, 13:00 and 17:00) for 12 to 15 days. 2) After the final instillation, the mice were euthanized by carbon dioxide inhalation, and then the eyeballs were extracted and rinsed with Hank's balanced salt solution (HBSS). 3) The sclera near the optic nerve was cut with a razor, the lens was removed through the incision, and the removed lens was immersed in HESS. 4) The lens was placed on a glass slide, and an all-in-one fluorescence microscope BZ-9000 (Keyence) was used to capture an image of the lens (Image a). 5) Next, one cover glass (Corning^(registered trade mark) 22×22 mm Square) was placed on the lens, and an image in which the thickness of the lens changed due to the weight was similarly captured (Image b). 6) A change in the lens diameter was calculated from Equation 1 wherein the lens diameter of Image a is subtracted from the lens diameter of Image b, as described below. Then, the lens elasticity improvement of each sample group compared with the vehicle control group was calculated from Equation 2 described below. The mean of the vehicle control group was based on 4 eyes, the mean of each sodium 4-phenylbutyrate sample group and the mean of the EV06 sample group were based on 9-10 eyes. Change in lens diameter=Lens diameter in Image b of each test sample−Lens diameter in Image a of each test sample (Equation 1) Lens elasticity improvement of each sample group=Mean change in lens diameter of each Test sample group−Mean change in lens diameter of Vehicle control group (Equation 2) (Results)

lens elasticity [3] = assay: Pharmacological Test 3: effect of once-daily instillation of sodium 4-phenylbutyrate for 2 weeks on lens elasticity; format: in vivo, C57BL/6J mice; details: for Lens elasticity improvement: 2.5 μL/eye, vs vehicle control
Method: The effect of once-daily instillation of sodium 4-phenylbutyrate for 2 weeks on the lens elasticity was examined. A vehicle comprising 0.1% (w/v) of ethyl pyruvate, 0.269% (w/v) of sodium dihydrogenphosphate monohydrate (NaH2PO4H2O), 0.433% (w/v) of disodium hydrogenphosphate (Na2HPO4), 0.2% (w/v) of hydroxypropyl methylcellulose, and 0.5% (w/v) of NaCl was prepared. Sodium 4-phenylbutyrate was dissolved with the addition of the vehicle to prepare a 3.0% (w/v) solution. The resulting 3.0% (w/v) solution was diluted with the vehicle to prepare a 1.0% (w/v) solution. Further, the resulting 1.0% (w/v) solution was diluted with the vehicle to prepare a 0.3% (w/v) solution. The total amount of each sample to be used in one day was prepared before use. EV06 was sonicated with the addition of the vehicle to prepare a 1.5% (w/v) solution. The total amount of the sample to be used in one day was prepared before use. 1) Each test sample (2.5 μL/eye) was instilled into the right eye of 8-month-old C57BL/6J mice with a Pipetman once per day (QD; around 9:00) or 3 times per day (TID; around 9:00, 13:00 and 17:00) for 14 days. 2) After the final instillation, the mice were euthanized by carbon dioxide inhalation, and then the eyeballs were extracted and rinsed with Hank's balanced salt solution (HBSS). 3) The sclera near the optic nerve was cut with a razor, the lens was removed through the incision, and the removed lens was immersed in HBSS. 4) The lens was placed on a glass slide, and an all-in-one fluorescence microscope BZ-9000 (Keyence) was used to capture an image of the lens (Image a). 5) Next, one cover glass (Corning^(registered trade mark) 22×22 mm Square) was placed on the lens, and an image in which the thickness of the lens changed due to the weight was similarly captured (Image b). 6) A change in the lens diameter was calculated from Equation 1 wherein the lens diameter of Image a is subtracted from the lens diameter of Image b, as described below. Then, the lens elasticity improvement of each sample group compared with the vehicle control group was calculated from Equation 2 described below. The mean of the vehicle control group was based on 5 eyes. The mean of each sodium 4-phenylbutyrate sample group and the mean of each EV06 sample group were based on 9 to 10 eyes. Change in lens diameter=Lens diameter in Image b of each test sample−Lens diameter in Image a of each test sample (Equation 1) Lens elasticity improvement of each sample group=Mean change in lens diameter of each Test sample group−Mean change in lens diameter of Vehicle control group (Equation 2) (Results)

[4] = test system: anterior segment of the eye; assay: Ocular Irritation Test (McDonald-Shadduck method, lens observation, histopathology); format: in vivo, Japanese White rabbits
Method: A vehicle (aqueous solution) comprising 0.1% (w/v) of ethyl pyruvate, 0.269% (w/v) of sodium dihydrogenphosphate monohydrate (NaH2PO4H2O), 0.433% (w/v) of disodium hydrogenphosphate (Na2HPO4), 0.2% (w/v) of hydroxypropyl methylcellulose, 0.5% (w/v) of NaCl was prepared.
0.3% (w/v), 1% (w/v), and 3% (w/v) sodium 4-phenylbutyrate ophthalmic liquids were prepared in the same manner as in the above pharmacological tests. These ophthalmic liquids and the vehicle were each instilled into the left eye of Japanese White rabbits at a dose of 50 μL/eye with pipette twice per day at a 6-hour interval for 2 weeks. One hour after the final instillation, ocular irritation of anterior segment of the eye was evaluated according to the McDonald-Shadduck method, and the lens was observed. The contralateral eye was […].
The ocular irritation of anterior segment of the eye was scored according to the following criteria:
+1: mild; +2: moderate; +3: severe.

| SMILES | Lens elasticity improvement (lens elasticity [1]; 0.5% (w/v) sample) | Lens elasticity improvement (lens elasticity [1]; 1.5% (w/v) sample) | Lens elasticity improvement (lens elasticity [1]; 5% (w/v) sample) | Lens elasticity improving effect (in words) (lens elasticity [1]; all of the 0.5%, 1.5%, and 5% groups) | Lens elasticity improvement (lens elasticity [2]; 1.5% (w/v) sample) | Lens elasticity improvement (lens elasticity [3]; 1.5% (w/v) sample, 3 times per day (TID) for 14 days) | Lens elasticity improvement (lens elasticity [3]; 1.5% (w/v) sample, once per day (QD) for 14 days) | Lens elasticity improvement (lens elasticity [2]; 0.15% (w/v) sample) | Lens elasticity improvement (lens elasticity [2]; 0.5% (w/v) sample) | Lens elasticity improving effect compared with EV06 at the same concentration (lens elasticity [2]; 1.5% sample group) | Lens elasticity improving effect (in words) (lens elasticity [2]; all of the 0.15%, 0.5%, and 1.5% groups) | Lens elasticity improvement (lens elasticity [3]; 0.3% (w/v) sample, once per day (QD) for 14 days) | Lens elasticity improvement (in words) (lens elasticity [3]; 0.3%, 1% and 3% samples instilled once-daily for 14 days) | Lens elasticity improvement (lens elasticity [3]; 1.0% (w/v) sample, once per day (QD) for 14 days) | Lens elasticity improvement (lens elasticity [3]; 3.0% (w/v) sample, once per day (QD) for 14 days) | Lens elasticity improvement compared with 1.5% EV06 (lens elasticity [3]; concentrations 1.0% and 3.0%, once-daily for 14 days) | Overall safety of ophthalmic liquids (in words) ([4]; ophthalmic liquids, rabbit 2-week instillation) | Histopathological examination of the eyes (in words) ([4]; rabbit, in vivo) | Observation of ocular irritation of anterior segment of the eye and lens observation (in words) ([4]; rabbit, in vivo) |
| --- | --- | --- | --- | --- | --- | --- | --- | --- | --- | --- | --- | --- | --- | --- | --- | --- | --- | --- | --- |
| C[N+](C)(C)CCOC(=O)CCCC[C@@H]1CCSS1.[Cl-] [EV06, lipoic acid choline ester] | 28.8 μm | 47.3 μm | 48.7 μm | increased lens diameter compared with the vehicle control group | 49.0 μm | 47.9 μm | 21.6 μm |  |  |  |  |  |  |  |  |  |  |  |  |
| O=C([O-])CCCc1ccccc1.[Na+] [sodium 4-phenylbutyrate] |  |  |  |  | 51.4 μm |  |  | 38.1 μm | 47.5 μm | stronger than that of EV06 | potent lens elasticity improving effect | 25.6 μm | potent lens elasticity improvement | 30.6 μm | 48.1 μm | more potent lens elasticity improvement compared with 1.5% EV06 | highly safe | showed no abnormal findings | no abnormal findings were observed |
